Experimental data reported in US20230000795A1, “LIPID CRYSTALLINE COMPOSITIONS WITH ENHANCED STABILITY FOR TOPICAL DELIVERY OF ACTIVE AGENT COMBINATIONS” (Ankh Life Sciences Limited, priority 2021, published 2023).
Converted amounts (≈) assume the structure as drawn. “And” between values parts separate entries of the source, which are not always exact repeats. Equal values may be shown once. Read-outs that look alike come from different tables or passages of the source.

Columns and labels:
[1] = Solubility in receptor solution (PBS with 0.1% Brij); assay type: physicochemical; details: aqueous with cosolvent or surfactant or cyclodextrin, thermodynamic from solid
Method: Excess of GZ17-6.02 were added to the solvent, which were stirred for 1 hour and incubated at 32° C. for 24 h. Thereafter the sample was centrifuged or filtrated and the solubility determined by HPLC method DM.216.03[4] or DM.217.01 [5]. One sample was prepared and duplicate injections were analysed.

[2] = In vitro permeation test through pig skin, infinite dose (150 mg, 230 mg/cm^2), Bronaugh flow-through cells; details: for Cumulative amount permeated: after application of 6% GZ17-6.02 cream batch, mean±SD
Method: Epidermal accumulation is significant due to the desired site of drug action on keratinocytes in actinic keratosis.
Three formulations were used in this experiment.
PBS buffer with 2% (w/w) Brij will be used as receptor solution.
The equipment used is Bronaugh diffusion cells. Parameters of the experiment is described in tables below. Analyses were performed according to RP-HPLC assay with additional calibration standard solutions. […] For the amount found in the tissue values both with and without cell 11 and 12 are reported.
After the in vitro experiment was terminated each membrane was washed, dismounted and prepared according to the following procedure: • 1. Wash the membrane six times with 0.5 ml PBS buffer and collect the PBS in the wash fraction tubes. • 2. Dismount the cells and gently clean the membranes with PBS moisture tops. Collect the tops in the wash fraction tubes. • 3. Gently separate […] from dermis by peeling the membrane and collect in a test tube. • 4. Cut out the cell flange (the unexposed skin) with a 10 mm punch and collect the material in a test tube. • 5. Cut the dermis into thin strips with a scalpel and collect the material in a test tube 1.5 ml.
Analysis of receptor solution and extractions from epidermis and dermis were performed by RP-HPLC.
Receptor solution were analyzed without any further treatment.
Tissue samples were treated according to the following procedure: • 1. […] Vortex the sample and sonicate for 30 minutes in cold water (2-8° C. add ice to the bath). • 3. The samples should then be centrifuged at 14000 rpm and transferred to HPLC vial for analysis.

[3] = Solubility of the active ingredients in aqueous GZ17-6.02 solutions; assay type: physicochemical; details: aqueous GZ17-6.02 solution
Source text: By comparison, in one study, the solubility of the active ingredients in aqueous GZ17-6.02 solutions (not the lipid crystalline formulation) was first analyzed. […]

[4] = tested on: actinic keratosis cell line HaCaT; test: Growth inhibition of EGF-stimulated HaCaT cells (Cell Titer Glo); assay type: cell-based; details: for IC50: Homo sapiens
Method: To investigate the mechanisms by which these pathways are affected, GZ17-6.02 was administered to the actinic keratosis cell line HT297.T in vitro and changes in signalling within various pathways were measured 6 hours post administration with cell death measured 24 hours post administration. […] 5-Fluorouracil was tested at a concentration of 50 uM.
Materials and Methods: A Cell Titer Glo assay was used to determine the sensitivity of EGF-stimulated HaCaT cells to GZ21T. Annexin-V assay was utilized to assess the pro-apoptotic effects of GZ21T on HaCaT cells, and the mechanism was clarified by western blot. AK lesions were induced in Female SKH-1 mice by exposing them to UVB radiation (500 J/m2) five times weekly for ten weeks. Mice were subsequently treated with 0.25 grams topical GZ21T or control cream five days per week. At the studies endpoint, lesional samples were collected from control and GZ21T treated mice and were subjected to RNA-sequencing and reverse phase protein arrays (RPPA). Gene set enrichment analysis (GSEA) was performed using the KEGG database as reference to identify the top pathways altered by GZ21T treatment. Gene set variation analysis (GSVA) was used to assess GZ21T's effect on pathways previously implicated in the pathogenesis of AK. Enrichment analysis was also performed on proteins showing decreased expression following GZ21T treatment using Enrichr with the KEGG database as reference.

[5] = IVPT on pig skin, finite dose 10 mg/cm^2, 3% and 6% GZ17-6.02 monoglyceride cream; details: after 24 h
Method: Wash the membrane six times with 0.5 ml PBS buffer and collect the PBS in the wash fraction tubes. • 2. Dismount the cells and gently clean the membranes with PBS moisture tops. Collect the tops in the wash fraction tubes. • 3. Gently separate […] from dermis by peeling the membrane and collect in a test tube. • 4. Cut out the cell flange (the unexposed skin) with a 10 mm punch and collect the material in a test tube. • 5. […] The samples should then be centrifuged at 14000 rpm and transferred to HPLC vial for analysis.

[6] = PBS buffer with 0.1% Brij, 32° C., 24 h, read-out: Solubility in receptor solution
[7] = after application of 6% GZ17-6.02 cream
[8] = same experimental methods (FIG. 6), read-out: IC50
[9] = pig, 24 h, 6 % GZ17-6.02 in cream

| Compound | solubility at 24 h [1, 6] [µg/mL] | Amount adsorbed into dermis [2, 7] [µg/g] | Amount adsorbed into epidermis [2, 7] [µg/g] | Maximum obtained concentration in the receptor solution ([2]; previous IVPT experiment) [µg/mL] | Solubility at 2-8° C. ([3]; pH 4.3) [% w/w] | Solubility at 25° C. ([3]; pH 4.3) [% w/w] | Solubility at 2-8° C. ([3]; pH 7.0) [% w/w] | Solubility at 25° C. ([3]; pH 7.0) [% w/w] | IC50 [4, 8] [µM] | other results |
| --- | --- | --- | --- | --- | --- | --- | --- | --- | --- | --- |
| COc1ccc2c(c1)[nH]c1c(C)nccc12 [Harmine, 7-methoxy-1-methyl-9H-pyrido[3,4-b]indole] | 50 (≈ 236 µM) | 38.9 ± 24.4 | 585.5 ± 227.8 | 0.13 | >1.56 | >1.56 | 0.0014 | 0.0034 |  | IC50 ([4]; read-out: IC50 as Monotherapy): 2.55 µg/mL and 12 µM |
| COc1ccc(C=O)cc1O [Isovanillin] | 3960 ± 30 (≈ 26000 µM) | 29.4 ± 19.3 | 181.2 ± 118.3 | 18 | 0.27 | 0.57 | 0.18 | 0.28 |  | Cumulative amount permeated ([2]; 2 h): 35.0 ± 20.7 μg/cm^2; Cumulative amount permeated ([2]; 4 h): 103.4 ± 47.6 μg/cm^2; Cumulative amount permeated ([2]; 6 h): 169.3 ± 66.1 μg/cm^2; Cumulative amount permeated ([2]; 8 h): 209.5 ± 74.4 μg/cm^2; Cumulative amount permeated ([2]; 24 h): 208 μg/cm^2 and 207.9 ± 95.2 μg/cm^2; Applied dose permeated when deviation from the linear regime (depletion) occurs ([2]; after 6-8 hours): about 1.5%; Systemic adsorption ([2]; extrapolated from in vitro 24 h permeation to a treated area of 25 cm^2): 5.2 mg; Applied dose permeated the skin [5]: about 2% |
| O=c1[nH]cc(F)c(=O)[nH]1 [5-Fluorouracil, reference compound] |  |  |  |  |  |  |  |  | 4.8 |  |
| O=C(O)Cc1ccccc1Nc1c(Cl)cccc1Cl [diclofenac, reference compound] |  |  |  |  |  |  |  |  | 602 |  |
| COc1cc(/C=C/C(=O)CC(=O)/C=C/c2ccc(O)c(OC)c2)ccc1O [Curcumin, 1,7-bis(4-hydroxy3-methoxyphenyl)-1,6-heptadiene-3,5-dione] |  |  |  |  |  |  |  |  |  | solubility at 24 h ([1]; 32 °C): 10 µg/mL (≈ 27.1 µM); Maximum obtained concentration in the receptor solution ([2]; pig, 6 % GZ17-6.02 in cream): 0 µg/mL; Amount adsorbed into dermis [2, 9]: 0.40 ± 0.23 µg/g; Amount adsorbed into epidermis [2, 9]: 3.82 ± 1.88 µg/g; IC50 as Monotherapy ([4]; API alone): 0.736 µg/mL (≈ 2 µM); IC50 ([4]; API alone, read-out: IC50 as Monotherapy): 0.774 µg/mL and 2 µM |
